Values of other authors in patent US20200276209A1, “METHODS OF TREATING EPILEPSY OR STATUS EPILEPTICUS” (Sage Therapeutics, Inc., priority 2017, published 2020).
Like-named read-outs stand apart in the source and are kept apart here.

System: status epilepticus

SMILES | patients who did not respond to first line treatment (intramuscular (IM) treatment) | patients who did not respond to first line treatment (intravenous (IV) treatment)
Cc1ncc2n1-c1ccc(Cl)cc1C(c1ccccc1F)=NC2 [midazolam] | 26.6% | 
O=C1Nc2ccc(Cl)cc2C(c2ccccc2Cl)=NC1O (centres unmarked) [lorazepam] |  | 36.6%
